Assay results published in the supplement of paper PMC11451515.

How the values were obtained:
Details in all cases: 48 h
P12-Ichikawa [1] = assay: cell viability relative to DMSO control; higher = less cytotoxic
How it was run: (§1)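 NOMO1, SEM and P12-Ichikawa leukemia cells spent at least four passages adapting to each medium before use. They were seeded at 500 cells/well (NOMO1, SEM) or 1000 cells/well (P12-Ichikawa) in 5 μl in 1536-well plates and pin-dosed with library compounds in DMSO at 11 threefold steps from 47 μM down to 0.79 nM. After 48 h at 37°C, CellTiter-Glo One luminescence was read. Viability is reported as a percentage of the DMSO wells on each plate, with cell-free wells as background.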

SEM cells [2] = assay: as above
How it was run: as §1

NOMO1 [3] = assay: as above
How it was run: as §1

P12-Ichikawa [4] = assay: AUC of viability dose-response curve (% viability x log10 dose units); higher = less sensitive
How it was run: (§2)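 Viability of medium-adapted leukemia cells was measured by CellTiter-Glo One luminescence after 48 h at 37°C with library compounds in DMSO. Doses were 11 threefold steps from 47 μM to 0.79 nM, in 1536-well plates at 500 or 1000 cells/well. Signals were normalised per plate to DMSO and cell-free wells and fitted with a four-parameter log-logistic model on log10 dose. Area under the curve was integrated by trapezoidal rule, with curves exceeding full viability scaled and failed quality-control curves removed.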

SEM cells [5] = assay: as above
How it was run: as §2

NOMO1 [6] = assay: as above
How it was run: as §2

CCOC(CN1C(=O)[C@](CC(=O)Nc2ccc(C)cc2)(NC(=O)Nc2ccc(C)cc2)c2ccccc21)OCC
cell viability [%]
Details	NOMO1 [3]	P12-Ichikawa [1]	SEM cells [2]
HPLM + 10% dialyzed FBS, 0.000781 µM	109	103	117
HPLM + 10% dialyzed FBS, 0.00234 µM	112	105	101
HPLM + 10% dialyzed FBS, 0.00702 µM	125	109	105
HPLM + 10% dialyzed FBS, 0.0211 µM	113	111	120
HPLM + 10% dialyzed FBS, 0.0632 µM	123	105	105
HPLM + 10% dialyzed FBS, 0.19 µM	122	109	116
HPLM + 10% dialyzed FBS, 0.569 µM	126	115	114
HPLM + 10% dialyzed FBS, 1.71 µM	124	108	102
HPLM + 10% dialyzed FBS, 5.12 µM	106	111	86.6
HPLM + 10% dialyzed FBS, 15.4 µM	83.8	111	99.6
HPLM + 10% dialyzed FBS, 46.1 µM	70.7	19.8	73.5
RPMI 5 mM glucose + 10% FBS, 0.000781 µM	110	102	99
RPMI 5 mM glucose + 10% FBS, 0.00234 µM	107	107	98.8
RPMI 5 mM glucose + 10% FBS, 0.00702 µM	106	101	113
RPMI 5 mM glucose + 10% FBS, 0.0211 µM	107	108	108
RPMI 5 mM glucose + 10% FBS, 0.0632 µM	113	105	99.4
RPMI 5 mM glucose + 10% FBS, 0.19 µM	104	105	108
RPMI 5 mM glucose + 10% FBS, 0.569 µM	123	105	119
RPMI 5 mM glucose + 10% FBS, 1.71 µM	125	117	87.7
RPMI 5 mM glucose + 10% FBS, 5.12 µM	113	101	75.9
RPMI 5 mM glucose + 10% FBS, 15.4 µM	103	106	77.3
RPMI 5 mM glucose + 10% FBS, 46.1 µM	49.8	34.8	79.9
RPMI 5 mM glucose + 10% dialyzed FBS, 0.000781 µM	99.2	100	109
RPMI 5 mM glucose + 10% dialyzed FBS, 0.00234 µM	101	104	115
RPMI 5 mM glucose + 10% dialyzed FBS, 0.00702 µM	105	93.7	100
RPMI 5 mM glucose + 10% dialyzed FBS, 0.0211 µM	99.8	107	113
RPMI 5 mM glucose + 10% dialyzed FBS, 0.0632 µM	114	102	122
RPMI 5 mM glucose + 10% dialyzed FBS, 0.19 µM	115	104	113
RPMI 5 mM glucose + 10% dialyzed FBS, 0.569 µM	109	116	110
RPMI 5 mM glucose + 10% dialyzed FBS, 1.71 µM	115	96.3	98.4
RPMI 5 mM glucose + 10% dialyzed FBS, 5.12 µM	99.3	102	102
RPMI 5 mM glucose + 10% dialyzed FBS, 15.4 µM	93	98	105
RPMI 5 mM glucose + 10% dialyzed FBS, 46.1 µM	60.3	37.6	66.5

AUC of viability dose-response curve
Details	NOMO1 [6]	P12-Ichikawa [4]	SEM cells [5]
HPLM + 10% dialyzed FBS	448	458	447
RPMI 5 mM glucose + 10% FBS	460	461	437
RPMI 5 mM glucose + 10% dialyzed FBS	458	460	466

OC(CCN1CCCCC1)(C2CC\3CC2\C=C3)C4=CC=CC=C4 (stereo unspecified)
cell viability [%]
Details	NOMO1 [3]	P12-Ichikawa [1]	SEM cells [2]
HPLM + 10% dialyzed FBS, 0.000781 µM	125	118	102
HPLM + 10% dialyzed FBS, 0.00234 µM	119	128	110
HPLM + 10% dialyzed FBS, 0.00702 µM	125	123	113
HPLM + 10% dialyzed FBS, 0.0211 µM	123	98.1	97.7
HPLM + 10% dialyzed FBS, 0.0632 µM	140	131	123
HPLM + 10% dialyzed FBS, 0.19 µM	133	122	120
HPLM + 10% dialyzed FBS, 0.569 µM	138	134	121
HPLM + 10% dialyzed FBS, 1.71 µM	144	135	94.8
HPLM + 10% dialyzed FBS, 5.12 µM	136	126	118
HPLM + 10% dialyzed FBS, 15.4 µM	117	123	129
HPLM + 10% dialyzed FBS, 46.1 µM	94.2	126	126
RPMI 5 mM glucose + 10% FBS, 0.000781 µM	–	–	94.9
RPMI 5 mM glucose + 10% FBS, 0.00234 µM	–	–	126
RPMI 5 mM glucose + 10% FBS, 0.00702 µM	–	–	115
RPMI 5 mM glucose + 10% FBS, 0.0211 µM	–	–	91
RPMI 5 mM glucose + 10% FBS, 0.0632 µM	–	–	122
RPMI 5 mM glucose + 10% FBS, 0.19 µM	–	–	119
RPMI 5 mM glucose + 10% FBS, 0.569 µM	–	–	116
RPMI 5 mM glucose + 10% FBS, 1.71 µM	–	–	107
RPMI 5 mM glucose + 10% FBS, 5.12 µM	–	–	123
RPMI 5 mM glucose + 10% FBS, 15.4 µM	–	–	134
RPMI 5 mM glucose + 10% FBS, 46.1 µM	–	–	121
RPMI 5 mM glucose + 10% dialyzed FBS, 0.000781 µM	–	118	104
RPMI 5 mM glucose + 10% dialyzed FBS, 0.00234 µM	–	122	104
RPMI 5 mM glucose + 10% dialyzed FBS, 0.00702 µM	–	134	113
RPMI 5 mM glucose + 10% dialyzed FBS, 0.0211 µM	–	91.4	70.2
RPMI 5 mM glucose + 10% dialyzed FBS, 0.0632 µM	–	133	129
RPMI 5 mM glucose + 10% dialyzed FBS, 0.19 µM	–	127	113
RPMI 5 mM glucose + 10% dialyzed FBS, 0.569 µM	–	123	127
RPMI 5 mM glucose + 10% dialyzed FBS, 1.71 µM	–	134	120
RPMI 5 mM glucose + 10% dialyzed FBS, 5.12 µM	–	127	132
RPMI 5 mM glucose + 10% dialyzed FBS, 15.4 µM	–	126	136
RPMI 5 mM glucose + 10% dialyzed FBS, 46.1 µM	–	130	131

AUC of viability dose-response curve
Details	NOMO1 [6]	P12-Ichikawa [4]	SEM cells [5]
HPLM + 10% dialyzed FBS	465	463	442
RPMI 5 mM glucose + 10% FBS	475	470	440
RPMI 5 mM glucose + 10% dialyzed FBS	453	455	439

CN1C2=CC(=O)/C(=N/NC(N)=O)C=C2CC1S(=O)(=O)[O-].[Na+] (stereo unspecified)
cell viability [%]
Details	NOMO1 [3]	P12-Ichikawa [1]	SEM cells [2]
HPLM + 10% dialyzed FBS, 0.000781 µM	87	105	79.9
HPLM + 10% dialyzed FBS, 0.00234 µM	105	112	110
HPLM + 10% dialyzed FBS, 0.00702 µM	105	112	96.7
HPLM + 10% dialyzed FBS, 0.0211 µM	104	112	103
HPLM + 10% dialyzed FBS, 0.0632 µM	111	108	103
HPLM + 10% dialyzed FBS, 0.19 µM	135	113	110
HPLM + 10% dialyzed FBS, 0.569 µM	116	115	117
HPLM + 10% dialyzed FBS, 1.71 µM	122	115	105
HPLM + 10% dialyzed FBS, 5.12 µM	125	110	124
HPLM + 10% dialyzed FBS, 15.4 µM	128	112	103
HPLM + 10% dialyzed FBS, 46.1 µM	92.5	112	115
RPMI 5 mM glucose + 10% FBS, 0.000781 µM	108	103	109
RPMI 5 mM glucose + 10% FBS, 0.00234 µM	109	112	108
RPMI 5 mM glucose + 10% FBS, 0.00702 µM	111	108	114
RPMI 5 mM glucose + 10% FBS, 0.0211 µM	115	112	115
RPMI 5 mM glucose + 10% FBS, 0.0632 µM	117	109	103
RPMI 5 mM glucose + 10% FBS, 0.19 µM	128	118	115
RPMI 5 mM glucose + 10% FBS, 0.569 µM	120	118	112
RPMI 5 mM glucose + 10% FBS, 1.71 µM	117	115	121
RPMI 5 mM glucose + 10% FBS, 5.12 µM	122	113	128
RPMI 5 mM glucose + 10% FBS, 15.4 µM	116	112	125
RPMI 5 mM glucose + 10% FBS, 46.1 µM	111	106	112
RPMI 5 mM glucose + 10% dialyzed FBS, 0.000781 µM	105	105	95.5
RPMI 5 mM glucose + 10% dialyzed FBS, 0.00234 µM	112	108	109
RPMI 5 mM glucose + 10% dialyzed FBS, 0.00702 µM	114	105	98.5
RPMI 5 mM glucose + 10% dialyzed FBS, 0.0211 µM	111	108	110
RPMI 5 mM glucose + 10% dialyzed FBS, 0.0632 µM	118	111	94.6
RPMI 5 mM glucose + 10% dialyzed FBS, 0.19 µM	126	113	116
RPMI 5 mM glucose + 10% dialyzed FBS, 0.569 µM	124	123	126
RPMI 5 mM glucose + 10% dialyzed FBS, 1.71 µM	123	112	114
RPMI 5 mM glucose + 10% dialyzed FBS, 5.12 µM	128	110	118
RPMI 5 mM glucose + 10% dialyzed FBS, 15.4 µM	119	117	117
RPMI 5 mM glucose + 10% dialyzed FBS, 46.1 µM	103	110	109

AUC of viability dose-response curve
Details	NOMO1 [6]	P12-Ichikawa [4]	SEM cells [5]
HPLM + 10% dialyzed FBS	454	475	455
RPMI 5 mM glucose + 10% FBS	462	472	449
RPMI 5 mM glucose + 10% dialyzed FBS	461	459	447
